# Reference: patent US20210170035A1, “METHOD OF TREATING CANCER BY TARGETING MYELOID-DERIVED SUPPRESSOR CELLS” (priority 2016, published 2021)
# Assays:
# F4/80+ macrophages = assay: Intracellular staining of arginase on F4/80+ macrophages from 4T1 solid tumor; format: in vivo, balb/c mice; conditions: tumor digestion at end of therapeutic study
# Method: Intracellular arginase staining: Cell surface markers for TAMs/MDSCs were labeled following procedures mentioned previously. 0.1 μL fixable viability dye eFluor® 660 was added together with antibody cocktails. After washing with PBS, cells were fixed with 4% formaldehyde in 500 μL of PBS for 15 min at 4° C. Cells were spun down to remove fixing solution. Cells were washed two times with 500 μL washing buffer containing 0.1 M glycine and 0.05% sodium azide. After being spun down a final time, cells were added 1 mL permeabilization solution containing 0.1 M glycine, 0.05% sodium azide and 0.1% triton-100. Permeabilization was performed at room temperature for 5 min. Permeabilized cells were spun down at 1500 rpm for 1 min, and the cells were washed three times with 1 mL blocking buffer containing 0.05 M glycine, 0.05% sodium azide and 0.2% gelatin. Cells were then re-suspended in 1 mL blocking buffer at 4° C. overnight to block non-specific intracellular binding. Cells were then spun down at 1500 rpm for 1 min to remove the supernatant and another 100 μL blocking buffer containing 1 μL FITC-arginase was added. Cells were kept in the dark at 4° C. overnight. After being spun down at 1500 rpm for 1 min, cells were washed with 1 mL blocking buffer and were then ready for flow cytometry analysis (BD Accuri C6™ flow cytometer). […]
# [1] = test system: F4/80+CD86+ : F4/80+CD206+ macrophages; assay: Ratio of M1 to M2 macrophages in 4T1 solid tumor; format: in vivo, balb/c mice; conditions: tumor digestion at end of therapeutic study
# Method: The ratio of M1 to M2 macrophages (F4/80+CD86+: F4/80+CD206+) was tested in groups of untreated control, FA-TLR7 agonist, FA-PI3K inhibitor, FA-Tubulysin and combination as well as competition groups.
# As described in the previous methods part, after tumor digestion at the end of therapeutic study, isolated cells were stained by F4/80 macrophage marker and M1 (CD86), M2 (CD206) markers. Macrophages in a tumor environment have been considered as a mainly M2 macrophage function, which can support tumor growth and suppress the immune response. On the other hand, M1 macrophages have been considered to be able to eliminate tumor cells and stimulate an anti-cancer immune response. Therefore, to study the M1 to M2 macrophage ratio is very important for targeting FR-β positive TAMs/MDSCs. […] Therefore, it could be concluded that by targeting FR+ TAMs/MDSCs in 4T1 solid tumor, the three classes of FA-conjugated […] are able to convert immunosuppression M2 macrophages environment to an anti-cancer M1 macrophages environment, which would contribute to the slow growth of a tumor.
# MDSCs (CD11b+Gr1+) = assay: MDSCs population (CD11b+Gr1+) in 4T1 solid tumor; format: in vivo, balb/c mice; conditions: tumor digestion at end of therapeutic study
# Method: The MDSCs population (CD11b+Gr1+) was tested in groups of untreated control, FA-TLR7 agonist, FA-PI3K inhibitor, FA-Tubulysin and combination as well as competition groups.
# As described in previous methods part, after tumor digestion at the end of therapeutic study, isolated cells were stained by MDSCs markers CD11b+Gr1+, see FIG. 26.
structure (smiles),measurement,setting,value
Cc1c(CN2CCN(C(=O)C(C)OC(=O)OCCSSCC(NC(=O)CCC(NC(=O)c3ccc(NCc4cnc5nc(N)[nH]c(=O)c5n4)cc3)C(=O)O)C(=O)O)CC2)sc2c(N3CCOCC3)nc(-c3cnc(N)nc3)nc12 (centres unmarked) [FA-PI3K inhibitor],arginase+F4/80+ cell population in live cells vs untreated control,F4/80+ macrophages,dramatically decreased
same,M1 to M2 macrophages ratio vs untreated control,[1],dramatically increased
same,MDSCs population (CD11b+Gr1+) vs untreated control,MDSCs (CD11b+Gr1+),no difference
same,anti-cancer effect on co-injection of 200 times more competitor (FA-PEG-NH2),"4T1 solid tumor; competition group, same schedule",can be competed
same,"tumor growth, therapeutic study","4T1 solid tumor; i.v. 5 days per week for 2 weeks from day 6, 10 nmol FA-TLR7 agonist, 10 nmol FA-PI3K inhibitor, 30 nmol FA-tubulysin",tumor growth was slowed down
